Values of other authors, collected in US20210212952A1, “METHOD AND ENCAPSULATED SUBSTANCE FOR TREATING PAIN DUE TO A VARIETY OF DISEASES” (priority 2020, published 2021).

Conditions: in vivo, po

O=C1CC[C@@]2(O)[C@H]3Cc4ccc(O)c5c4[C@@]2(CCN3CC2CC2)[C@H]1O5 [Naltrexone, naltrexone]
absorbed into the blood stream: 96%
